Reference: US20140303092A1 (CHIMERIX, INC., priority 2011, published 2014)

Experiment: Study HDP-CDV-201: safety and tolerability (adverse events, laboratory abnormalities, discontinuations)
Type: in vivo, human (adult allogeneic HSCT recipients)
Protocol: Clinical Studies of HDP-CDV were performed and described in detail in the following Examples. For example, HDP-CDV-201 is a placebo-controlled, dose-escalating trial in HSCT CMV (R+) recipients, evaluating the ability of HDP-CDV to prevent or control CMV infection was carried out. Five cohorts were established in which participants or subjects received either placebo or the HDP-CDV orally, in doses ranging from 40 mg weekly (QW) to 200 mg twice weekly (BIW). Subjects who were post-HSCT were enrolled at the time of engraftment and randomized to HDP-CDV or placebo (3 to 1 ratio) and received blinded therapy until approximately 100 day post-transplantation. HDP-CDV doses were 40 mg QW, 100 mg QW, 200 mg QW, 200 mg BIW and 100 mg BIW. Escalation to the next dose was decided by the data monitoring committee after review of the safety data from the previous Cohort. Subjects who developed CMV disease or CMV infection requiring pre-emptive therapy with local standard of care were discontinued from blinded therapy and followed for 4 weeks. Subjects who completed treatment with blinded therapy were followed for 8 weeks post-therapy.
Data from Study HDP-CDV-201 also provided characterization of the safety and tolerability profile of HDP-CDV when administered for the prevention or control of CMV infection in high risk (R^+) post-HSCT adult subjects.
The Safety population (SAFETY) included all randomized subjects who took at least one dose of study treatment. This population was used to summarize safety outcomes based on the treatment actually received, in cases where a subject was treated contrary to the randomization schedule.
The safety and tolerability profile of HDP-CDV, including subject demographics and Baseline characteristics; the AE profile; and laboratory abnormalities of interest were analyzed in the cohorts followed in this investigation.
Subjects completing the treatment period received a full course of study medication; those completing the entire study attended visits through 8 weeks of follow up. Subjects who discontinued treatment may have done so for protocol specified reasons (e.g. development of clinically significant CMV infection requiring preemptive treatment with excluded anti-CMV medications) or for other reasons (e.g., withdrawal, adverse events, loss to follow-up). The disposition of subjects in Study HDP-CDV-201 during the double-blind, placebo-controlled treatment period (through Week 11) is listed by dosing Cohort in TABLE 23.
Adverse events were examined by severity to ensure that all safety signals were identified in this study population. Because of the frequency of events in HSCT recipients, particular attention was given to evaluation of Grade 3 […], 4 (severe), and 5 (fatal) adverse events.
Only those preferred terms for which at least one Grade 3 or higher event was experienced in any treatment group are listed. Cytomegalovirus-related AEs are excluded from this analysis.
HDP-CDV is a lipid conjugate of CDV. Because CDV is known to have adverse effects on renal function and bone marrow, decreased GFR and persistent neutropenia were identified as AEs of special interest. Key renal and hematological (TABLE 30) laboratory parameters were measured and listed below by Study HDP-CDV-201 treatment groups. TABLE 30 includes abnormal levels of serum creatinine, neutrophils, platelets, WBCs, and hemoglobin and includes data at Screening and during the treatment period.
A common metric for unit based dosing of medications is by weight (mg/kg). When the distribution of weights was examined for all subjects participating in the study, the median was 78 kg and the lower 25th percentile weight was approximately 65 kg, which translates to a cut-off of ˜3 mg/kg for a 200 mg total weekly dose. Based upon this approach, a cut-off of 3 mg/kg was used to assess the frequency of diarrhea and associated GI AEs reported for the subjects in Cohorts 3 or 4a (TABLE 40).

CCCCCCCCCCCCCCCCOCCCOP(=O)(O)COC(CO)Cn1ccc(N)nc1=O (stereo not drawn) [HDP-CDV]
TEAE Pneumonia, Grade 4 (40 mg QW): 1 (4.0%)
TEAE Pneumonia, Grade 5 (40 mg QW): 0
TEAE Pyrexia, Frequency (40 mg QW): 1 (4.0%)
TEAE Pyrexia, Grade 2 (40 mg QW): 1 (4.0%)
TEAE Pyrexia, Grade 3 (40 mg QW): 0
TEAE Pyrexia, Grade 4 (40 mg QW): 0
TEAE Pyrexia, Grade 5 (40 mg QW): 0
TEAE Renal Failure, Frequency (40 mg QW): 1 (4.0%)
TEAE Renal Failure, Grade 2 (40 mg QW): 0
TEAE Renal Failure, Grade 3 (40 mg QW): 1 (4.0%)
TEAE Renal Failure, Grade 4 (40 mg QW): 0
TEAE Renal Failure, Grade 5 (40 mg QW): 0
TEAE Staphylococcal Bacteremia, Frequency (40 mg QW): 0
TEAE Staphylococcal Bacteremia, Grade 2 (40 mg QW): 0
TEAE Staphylococcal Bacteremia, Grade 3 (40 mg QW): 0
TEAE Staphylococcal Bacteremia, Grade 4 (40 mg QW): 0
TEAE Staphylococcal Bacteremia, Grade 5 (40 mg QW): 0
TEAE Thrombocytopenia, Frequency (40 mg QW): 3 (12.0%)
TEAE Thrombocytopenia, Grade 2 (40 mg QW): 1 (4.0%)
TEAE Thrombocytopenia, Grade 3 (40 mg QW): 1 (4.0%)
TEAE Thrombocytopenia, Grade 4 (40 mg QW): 1 (4.0%)
TEAE Thrombocytopenia, Grade 5 (40 mg QW): 0
TEAE Vomiting, Frequency (40 mg QW): 2 (8.0%)
TEAE Vomiting, Grade 2 (40 mg QW): 1 (4.0%)
TEAE Vomiting, Grade 3 (40 mg QW): 0
TEAE Vomiting, Grade 4 (40 mg QW): 0
TEAE Vomiting, Grade 5 (40 mg QW): 0
subjects discontinued due to acute renal failure (40 mg QW): one
Subjects Reporting Diarrhea as an AE (40 mg QW, n = 25): 3 (12.0%)
Discontinuation: Death (40 mg QW, active treatment period): 1 (4.0%) Subject n (%)
Discontinuation: Adverse event (40 mg QW, active treatment period through Week 11): 3 (12.0%) Subject n (%)
TEAE ALT increased, Frequency (100 mg BIW): 9 (18.0%)
TEAE ALT increased, Grade 2 (100 mg BIW): 1 (2.0%)
TEAE ALT increased, Grade 3 (100 mg BIW): 4 (8.0%)
TEAE ALT increased, Grade 4 (100 mg BIW): 0
TEAE ALT increased, Grade 5 (100 mg BIW): 0
TEAE AML, Recurrent, Frequency (100 mg BIW): 3 (6.0%)
TEAE AML, Recurrent, Grade 2 (100 mg BIW): 1 (2.0%)
TEAE AML, Recurrent, Grade 3 (100 mg BIW): 0
TEAE AML, Recurrent, Grade 4 (100 mg BIW): 1 (2.0%)
TEAE AML, Recurrent, Grade 5 (100 mg BIW): 1 (2.0%)
TEAE AST increased, Frequency (100 mg BIW): 5 (10.0%)
TEAE AST increased, Grade 2 (100 mg BIW): 1 (2.0%)
TEAE AST increased, Grade 3 (100 mg BIW): 3 (6.0%)
TEAE AST increased, Grade 4 (100 mg BIW): 0
TEAE AST increased, Grade 5 (100 mg BIW): 0
TEAE Abdominal pain, Frequency (100 mg BIW): 13 (26.0%)
TEAE Abdominal pain, Grade 2 (100 mg BIW): 1 (2.0%)
TEAE Abdominal pain, Grade 3 (100 mg BIW): 1 (2.0%)
TEAE Abdominal pain, Grade 4 (100 mg BIW): 0
TEAE Abdominal pain, Grade 5 (100 mg BIW): 0
TEAE Acute GVHD, Frequency (100 mg BIW): 32 (64.0%)
TEAE Acute GVHD, Grade 2 (100 mg BIW): 11 (22.0%)
TEAE Acute GVHD, Grade 3 (100 mg BIW): 12 (24.0%)
TEAE Acute GVHD, Grade 4 (100 mg BIW): 5 (10.0%)
TEAE Arthralgias, Frequency (100 mg BIW): 3 (6.0%)
TEAE Arthralgias, Grade 2 (100 mg BIW): 1 (2.0%)
TEAE Arthralgias, Grade 3 (100 mg BIW): 1 (2.0%)
TEAE Arthralgias, Grade 4 (100 mg BIW): 0
TEAE Arthralgias, Grade 5 (100 mg BIW): 0
TEAE Back Pain, Frequency (100 mg BIW): 4 (8.0%)
TEAE Back Pain, Grade 2 (100 mg BIW): 3 (6.0%)
TEAE Back Pain, Grade 3 (100 mg BIW): 0
TEAE Back Pain, Grade 4 (100 mg BIW): 0
TEAE Back Pain, Grade 5 (100 mg BIW): 0
TEAE Decreased appetite, Frequency (100 mg BIW): 9 (18.0%)
TEAE Decreased appetite, Grade 3 (100 mg BIW): 3 (6.0%)
TEAE Decreased appetite, Grade 4 (100 mg BIW): 0
TEAE Decreased appetite, Grade 5 (100 mg BIW): 0
TEAE Diarrhea, Frequency (100 mg BIW): 26 (52.0%)
TEAE Diarrhea, Grade 2 (100 mg BIW): 6 (12.0%)
TEAE Diarrhea, Grade 3 (100 mg BIW): 9 (18.0%)
TEAE Diarrhea, Grade 4 (100 mg BIW): 0
TEAE Diarrhea, Grade 5 (100 mg BIW): 0
TEAE Fatigue, Frequency (100 mg BIW): 9 (18.0%)
TEAE Fatigue, Grade 2 (100 mg BIW): 2 (4.0%)
TEAE Fatigue, Grade 3 (100 mg BIW): 0
TEAE Fatigue, Grade 4 (100 mg BIW): 0
TEAE Fatigue, Grade 5 (100 mg BIW): 0
TEAE GGT Increased, Frequency (100 mg BIW): 4 (8.0%)
TEAE GGT Increased, Grade 2 (100 mg BIW): 1 (2.0%)
TEAE GGT Increased, Grade 3 (100 mg BIW): 3 (6.0%)
TEAE GGT Increased, Grade 4 (100 mg BIW): 0
TEAE GGT Increased, Grade 5 (100 mg BIW): 0
TEAE Generalized oedema, Frequency (100 mg BIW): 1 (2.0%)
TEAE Generalized oedema, Grade 2 (100 mg BIW): 1 (2.0%)
TEAE Generalized oedema, Grade 3 (100 mg BIW): 0
TEAE Generalized oedema, Grade 4 (100 mg BIW): 0
TEAE Generalized oedema, Grade 5 (100 mg BIW): 0
TEAE Hyperbilirubinaemia, Frequency (100 mg BIW): 3 (6.0%)
TEAE Hyperbilirubinaemia, Grade 2 (100 mg BIW): 1 (2.0%)
TEAE Hyperbilirubinaemia, Grade 3 (100 mg BIW): 0
TEAE Hyperbilirubinaemia, Grade 4 (100 mg BIW): 0
TEAE Hyperbilirubinaemia, Grade 5 (100 mg BIW): 0
TEAE Hyperglycaemia, Frequency (100 mg BIW): 9 (18.0%)
TEAE Hyperglycaemia, Grade 2 (100 mg BIW): 4 (8.0%)
TEAE Hyperglycaemia, Grade 3 (100 mg BIW): 2 (4.0%)
TEAE Hyperglycaemia, Grade 4 (100 mg BIW): 1 (2.0%)
TEAE Hyperglycaemia, Grade 5 (100 mg BIW): 0
TEAE Hyperkalemia, Frequency (100 mg BIW): 3 (6.0%)
TEAE Hyperkalemia, Grade 2 (100 mg BIW): 2 (4.0%)
TEAE Hyperkalemia, Grade 3 (100 mg BIW): 0
TEAE Hyperkalemia, Grade 4 (100 mg BIW): 0
TEAE Hyperkalemia, Grade 5 (100 mg BIW): 0
TEAE Hypocalcaemia, Frequency (100 mg BIW): 2 (4.0%)
TEAE Hypocalcaemia, Grade 2 (100 mg BIW): 1 (2.0%)
TEAE Hypocalcaemia, Grade 3 (100 mg BIW): 1 (2.0%)
TEAE Hypocalcaemia, Grade 4 (100 mg BIW): 0
TEAE Hypocalcaemia, Grade 5 (100 mg BIW): 0
TEAE Hypokalaemia, Frequency (100 mg BIW): 8 (16.0%)
TEAE Hypokalaemia, Grade 2 (100 mg BIW): 2 (4.0%)
